The text below walks through data of patent US8536225B2, “Therapeutic methods employing nitric oxide precursors” (Vanderbilt University, priority 1999, dated 2013).

What all share (format): in vivo, Duroc swine
Data set [1] is described as follows: Hemodynamic monitoring (mean arterial blood pressure) after IV citrulline in piglets. The note with it: citrulline 600 mg/kg IV. The procedure: (§1) Intravenous citrulline has not been previously used in a clinical model. This Example assessed the safety of IV citrulline and its effect on serum arginine levels in piglets. A total of 9 Duroc swine, aged 5-21 days, with a target minimum weight of 4 kg were utilized. All piglets underwent anesthetic induction and tracheostomy. Central lines were placed in the femoral artery and femoral vein and hemodynamics monitored continuously. Citrulline (600 mg/kg IV) was administered to 5 piglets. Saline was given to control animals. Serum amino acids were drawn before and each hour after citrulline administration.

A short description of data set [2]: Serum arginine levels after intravenous citrulline in piglets. The settings on record: citrulline 600 mg/kg IV. The procedure:
as §1

Data set [3] can be described thus: Pharmacokinetics of plasma citrulline and arginine after single dose of IV citrulline. The note with it: piglets, single dose IV citrulline 600 mg/kg. Here is the method: as §1
Pharmacokinetics: Based on the above data, the pharmacokinetics were calculated for both plasma citrulline and arginie levels after the single dose of IV citrulline. Pharmacokinetic data included plasma half-life (t½), elimination constant (Kel), volume of distribution (Vd), and plasma clearance (CLp).

Take `NC(=O)NCCC[C@H](N)C(=O)O` [Citrulline, citrulline]: the “Mean Arterial Blood Pressures Following IV Citrulline, 1 hour post” value in data set [1] (1 hour post) was found to be 67.4 mmHg. Further, the “Mean Arterial Blood Pressures Following IV Citrulline, 2 hours post” value in data set [1] (2 hours post) is on record as 64.8 mmHg. The “Mean Arterial Blood Pressures Following IV Citrulline, 3 hours post” value in data set [1] (3 hours post) is recorded as 62.2 mmHg. For the same compound, the Hemodynamic instability result in data set [1] (hemodynamics monitored continuously) is recorded as “No hemodynamic instability was observed”. Also, the “Mean Arterial Blood Pressures Following IV Citrulline, Pre-dose” value in data set [1] (pre-dose) worked out at 67.0 mmHg. Also, the “Time of peak serum arginine levels following IV citrulline administration” value in data set [2] was in the range of 1 to 2 h. The “Arginine Levels Following IV Citrulline, 1 hour post” value in data set [2] (1 hour post, serum) was 535.0 µmol/L. The “Arginine Levels Following IV Citrulline, 2 hours post” value in data set [2] (2 hours post, serum) was determined as 559.8 µmol/L. In addition, the “Arginine Levels Following IV Citrulline, 3 hours post” value in data set [2] (3 hours post, serum) was 498.4 µmol/L. Further, the “Arginine Levels Following IV Citrulline, Baseline” value in data set [2] (baseline (before administration), serum) is 131.5 µmol/L. For the same compound, the half-life (usually the time in which the quantity being followed falls by half) in data set [3] (Duroc, pig, plasma, read-out: Plasma citrulline half-life (t½) (converted)) was 1.5 h. The clearance (as a rule, the rate of elimination divided by the concentration) in data set [3] (Duroc, pig, plasma, read-out: Plasma citrulline plasma clearance (CLp) (converted)) is 17.5 mL/min. For the same compound, the Vd (commonly the apparent volume that relates the amount in the body to the concentration in plasma or blood) in data set [3] (Duroc, pig, plasma, read-out: Plasma citrulline volume of distribution (Vd)) turned out to be 2.25 L. For the same compound, in data set [3], the “Plasma citrulline elimination constant (Kel)” value is 0.462 h⁻¹.
